“And” between values parts separate entries of the source, which are not always exact repeats. Identical values can stand only once.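 These data come from cells grown in 96-well plates and exposed to compound for 48 hours at five concentrations. Here, GI50 denotes the concentration required for 50% inhibition of growth. TGI denotes the concentration required for complete inhibition of growth.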 Where a SMILES comes first, the peptide text is derived from it. [ ]: non-standard residue; d: D form. ξ: configuration not given here. Pentanoyl(2-O,4-OH,5-Cl) = O=C(O)C(O)CC(O)CCl; Ile(3ξ) = CCC(C)[C@H](N)C(=O)O; NMeV = CN[C@H](C(=O)O)C(C)C; NMeA = CN[C@@H](C)C(=O)O; βAla = NCCC(=O)O
Tests used:
Assay in all cases: growth of human tumour cells (NCI), 48 h
SNB-19 CNS = system: SNB-19 CNS
NCI/ADR-RES ovarian = system: NCI/ADR-RES ovarian
SK-MEL-5 melanoma = system: SK-MEL-5 melanoma
SF-295 CNS = system: SF-295 CNS
CCRF-CEM leukemia = system: CCRF-CEM leukemia
SN12C renal = system: SN12C renal
CAKI-1 renal = system: CAKI-1 renal
NCI-H226 lung = system: NCI-H226 lung
MCF7 breast = system: MCF7 breast
T-47D breast = system: T-47D breast

Structure (SMILES)	GI50 (SNB-19 CNS) [µM]	TGI (SNB-19 CNS)	GI50 (NCI/ADR-RES ovarian) [µM]	TGI (NCI/ADR-RES ovarian)	GI50 (SK-MEL-5 melanoma) [µM]	TGI (SK-MEL-5 melanoma)	GI50 (SF-295 CNS) [µM]	TGI (SF-295 CNS)	GI50 (CCRF-CEM leukemia) [µM]	TGI (CCRF-CEM leukemia)	GI50 (SN12C renal) [µM]	TGI (SN12C renal)	GI50 (CAKI-1 renal)	TGI (CAKI-1 renal)	GI50 (NCI-H226 lung) [µM]	TGI (NCI-H226 lung)	GI50 (MCF7 breast) [µM]	TGI (MCF7 breast)	GI50 (T-47D breast) [µM]	TGI (T-47D breast)
O=C(Nc1ccccc1/C=C/c1n[nH]c2ccccc12)c1ccccc1	5.93	22.5 µM	4.69	20 µM	3.81	16.5 µM	2.13	5.57 µM	4.05	22.3 µM	2	5.4 µM	2.98 µM	16.9 µM	1.09	11.5 µM	0.505	13.2 µM	3.77	15.8 µM
CCn1c(-c2nonc2N)nc2cnc(Oc3cccc(NC(=O)c4ccc(OCCN5CCOCC5)cc4)c3)cc21	12.1	> 25 µM	6.1	> 25 µM	3.18	> 22 µM	0.974	> 16.9 µM	0.671	> 25 µM	6.26	> 25 µM	0.116 µM	> 17.9 µM	1.24	> 25 µM	3.87	> 25 µM	1.94	> 25 µM
COC1C(OC(=O)/C=C/C=C/C=C/C=C/C(=O)O)CCC2(CO2)C1C1(C)OC1CC=C(C)C (stereo not drawn)	0.277	> 100 µM	–	97.7 µM	0.271	> 64.9 µM	0.193	> 96.8 µM	0.386	78.1 µM	0.225	–	0.414 µM	> 100 µM	–	> 100 µM	0.172	> 100 µM	0.326	70.2 µM
C=C1C(=O)O[C@@H]2C[C@@]3(C)CCC[C@H](C)C3=C[C@H]12 (tested in a mixture with another compound)	–	22.4 µM	–	5.2 µM	–	3.9 µM	–	24.6 µM	–	> 100 µM	–	3.44 µM	–	3.57 µM	–	16.6 µM	–	10.7 µM	–	3.18 µM
CC(C)(C)CNCCO	–	> 100 µM	–	> 100 µM	–	> 100 µM	–	> 100 µM	–	> 100 µM	–	> 100 µM	–	> 100 µM	–	> 100 µM	–	> 100 µM	–	> 100 µM
C=CC(=O)N1CCN([C@@H](CC2CC2)c2ccc([C@H](C)Nc3ncc4c(n3)N(CC)C(=O)OC4)cc2)CC1	14.4	27.8 µM	21.5	> 100 µM	15.4	30 µM	13	26.3 µM	4.29	25.2 µM	13.7	31.8 µM	5.23 µM	19 µM	14.1	34.7 µM	6.66	24.6 µM	14.8	61.3 µM
COc1cccc(C2CC(C)(O)Oc3cc4c(cc32)OCO4)c1 (stereo not drawn)	–	> 100 µM	–	59.3 µM	–	> 100 µM	–	95.7 µM	–	> 100 µM	–	> 100 µM	–	> 100 µM	–	53 µM	–	> 100 µM	–	> 100 µM
COc1ccc2c(c1[N+](=O)[O-])CC[C@@H]1[C@@H]2CC[C@]2(C)C(=O)CC[C@@H]12	457	–	515	> 1000 µM	502	> 1000 µM	342	> 968 µM	> 1000	–	983	> 1000 µM	660 µM	> 1000 µM	494	–	998	> 1000 µM	675	> 1000 µM
CCC(C)[C@@H]1NC(=O)[C@@H]2CCCN2C(=O)C(CC(O)CCl)OC(=O)CCNC(=O)[C@H](C)N(C)C(=O)[C@H](C(C)C)N(C)C1=O (stereo partly drawn) (cyclo([Ile(3ξ)][NMeV][NMeA][βAla][Pentanoyl(2-O,4-OH,5-Cl)]P))	–	> 100 µM	–	> 100 µM	–	2.29 µM	–	70.4 µM	–	> 100 µM	–	> 100 µM	–	> 100 µM	–	> 100 µM	–	> 100 µM	–	> 100 µM
Clc1cccc(-c2cc(-c3ccc4c(c3)OCCO4)[nH]n2)c1	21.6	59.3 µM	1.11	33.8 µM	5.9	39.1 µM	9.71	45.1 µM	6.99	182 µM	5.38	40.1 µM	1.61 µM	36.3 µM	29.5	92.1 µM	4.25	32.9 µM	3.64	53.8 µM
CN(C)CCN1C(=O)c2cccc3cc(N)cc(c23)C1=O	4.7	> 88.9 µM and 18.8 µM	–	> 67.2 µM and 12.2 µM	1.88	4.44 µM and 6.46 µM	2.29	9.31 µM and 18.4 µM	3.45	> 50.7 µM and 20 µM	2.83	> 56.9 µM and 16.3 µM	1.77 µM and 1.11 µM	11.1 µM and 7.59 µM	1.51	5.34 µM and 8.51 µM	1.38	22.2 µM and 18.5 µM	3.66	> 57.1 µM and 32.4 µM
CC(C)CC(NC(=O)C(O)C(N)Cc1ccccc1)C(=O)O (stereo not drawn)	–	> 100 µM	–	> 100 µM	–	> 100 µM	–	> 100 µM	–	> 100 µM	–	> 100 µM	–	> 100 µM	–	> 100 µM	–	> 100 µM	–	> 100 µM
Cc1ccc(NC(=O)c2ccoc2)cc1-c1ccc(C(=O)NCC2CC2)cc1	> 25	> 25 µM	> 18.8	> 25 µM	7.75	> 25 µM	> 14.8	> 25 µM	> 25	> 25 µM	> 25	> 25 µM	> 25 µM	> 25 µM	> 19.5	> 25 µM	> 16.1	> 25 µM	7.16	> 25 µM
CN1CCC2(CC1)C(=O)Nc1cc(NC(=O)c3ccc4c(c3)C[C@@H]3C(C)(C)[C@H](O)[C@H](F)C[C@@]3(C)O4)ccc12	1.97	22 µM	> 100	> 100 µM	2.62	12.3 µM	0.0495	0.256 µM	0.092	> 100 µM	13.2	> 100 µM	1.34 µM	18.7 µM	14	49.3 µM	0.0925	21.4 µM	5.67	28.8 µM
